These compounds were tested on NLRP3 inflammasome (assay: NLRP3 inflammasome activation: ASC-SPECK formation in gramicidin-stimulated THP-1 cells). Conditions: Homo sapiens, THP-1, inhibition of ASC SPECK formation; PMA-treated human monocytic THP-1 cells, compound 1 h before 12.5 μg/ml gramicidin, 3-hour treatment.
Format: cell-based
Excerpt: Activation of the canonical NLRP3 inflammasome requires two steps, priming and activation. A priming signal such as a pathogen activated molecular patterns (PAMPs) or danger-activated molecular patterns (DAMPs) are recognized by Toll-like receptors leads to nuclear factor kappa B (NF-KB)-mediated signaling. […] The second step is activation which induces oligomerization of NLRP3 and subsequent assembly of NLRP3, apoptosis-associated speck-like protein containing a CARD (ASC), and procaspase-1 into an inflammasome complex. This triggers the transformation of procaspase-1 to caspase-1, and the production and secretion of mature IL-1β and IL-18 (Kim et al., J. Inflamm. 2015, 12, 41; Ozaki et al., J. Inflamm. Res. 2015, 8, 15-27; Rabeony et al., Eur. J. Immunol. 2015, 45, 2847). During inflammasome complex assembly, the oligomerization of NLRP3 triggers the nucleation of ASC and an event commonly referred to as “ASC SPECK” formation, as it is identified in the cell as a discrete puncta within the cell after staining and visualization of ASC using common immunocytochemical methods.
The ability of compounds to inhibit NLRP3 inflammasome activation was determined in vitro by monitoring formation of the ASC-SPECK in human monocytic THP-1 cells after stimulation. THP-1 cells (ATCC catalog #TIB-202) were maintained in complete growth media containing Roswell Park Memorial Institute RPMI (ATCC catalog #30-2001), 10% heat inactivated fetal bovine serum, 1× penicillin/streptomycin and 0.05 mM 2-mercaptoethanol. At the start of the assay, undifferentiated THP-1 cells were plated at a density of 20,000 cells per well in a 384-well plate (Poly-D-lysine coated Cell Carrier Ultra microplate, Perkin Elmer catalog #6057500) in complete growth media supplemented with 10 ng/ml phorbol 12-myristate 13-acetate (PMA; Sigma catalog #P8139), and then incubated overnight. The next day, media was replaced with assay media (RPMI (Gibco catalog #11875-093), 0.01% bovine serum albumin (BSA)). Compounds were serially diluted in DMSO and then added to wells one hour prior to the addition of 12.5 μg/ml Gramicidin (Enzo Lifescience, catalog #ALX-350-233-M005). All incubations were carried out at 37° C. (5% CO2/95% air). Following a 3-hour treatment with gramicidin, cells are fixed with 4% paraformaldehyde and stored at 4° C. until immunofluorescence staining.
Immunofluorescence staining: Anti-ASC antibody (MBL catalog #D086-3) was desalted and labeled with Alexa 488 antibody labeling kit (Thermo catalog #A20181) prior to use as described below. After fixation, the following steps were carried out at rt. Cells were first permeabilized with 0.3% polyethylene glycol tert-octylphenyl ether (Triton X-100) in phosphate-buffered saline (PBS) for 15 minutes and then incubated in blocking buffer containing 5% goat serum, 0.3% polyethylene glycol sorbitan monolaurate (Tween-20) and 0.03% sodium azide in PBS for 1 hour. Cells were stained with a mixture of ASC-Alexa 488 antibody (diluted 1:200 in blocking buffer) and nuclear stain DRAQ5 (1:5000 in blocking buffer, Thermo catalog #62251) in blocking buffer for 1 hour. Following a wash with 0.3% polyethylene glycol sorbitan monolaurate (Tween-20) in PBS, plates were imaged with an Opera Phenix High Content Screening System. The number of DRAQ5 positive cells containing ASC SPECKS were quantified in each well.
Data analysis: EC50 values were calculated by standard curve-fitting analysis using an internally developed program in TIBCO Spotfire software.

Row | EC50 | SMILES
1 | 235 nM | Cc1cc(C(F)(F)F)cc(O)c1-c1cnc2cn(C3CCOC(C)(C)C3)nc2n1 (single isomer, unassigned) [Example 96, (S or R)-2-(2-(2,2-dimethyltetrahydro-2H-pyran-4-yl)-2H-pyrazolo[3,4-b]pyrazin-6-yl)-3-methyl-5-(trifluoromethyl)phenol]
2 | 321 nM | Cc1cc(C(F)(F)F)cc(O)c1-c1cnc2cn([C@H]3CCOC[C@@H]3F)nc2n1 (single isomer, unassigned) [Example 103, 2-(2-((3R,4S or 3S,4R)-3-fluorotetrahydro-2H-pyran-4-yl)-2H-pyrazolo[3,4-b]pyrazin-6-yl)-3-methyl-5-(trifluoromethyl)phenol]
3 | 433 nM | Cc1cc(C(F)(F)F)cc(O)c1-c1cnc2cn(C3CCOCC3(F)F)nc2n1 (single isomer, unassigned) [Example 105, (R or S)-2-(2-(3,3-difluorotetrahydro-2H-pyran-4-yl)-2H-pyrazolo[3,4-b]pyrazin-6-yl)-3-methyl-5-(trifluoromethyl)phenol]
4 | 191 nM | Cc1cc(C(F)(F)F)cc(O)c1-c1cnc2c(C)n(C3CCC(=O)N(C)C3)nc2n1 (single isomer, unassigned) [Example 106, (S or R)-5-(6-(2-hydroxy-6-methyl-4-(trifluoromethyl)phenyl)-3-methyl-2H-pyrazolo[3,4-b]pyrazin-2-yl)-1-methylpiperidin-2-one]

Same assay, conditions: inhibition of ASC SPECK formation; PMA-treated human monocytic THP-1 cells, compound 1 h before 12.5 μg/ml gramicidin, 3-hour treatment

Row | SMILES | EC50
5 | Cc1cc(C(F)(F)F)cc(O)c1-c1cnc2cn([C@H]3CCO[C@H](C)C3)nc2n1 (single isomer, unassigned) [Example 89, 3-methyl-2-(2-((2R,4S or 2S,4R)-2-methyltetrahydro-2H-pyran-4-yl)-2H-pyrazolo[3,4-b]pyrazin-6-yl)-5-(trifluoromethyl)phenol] | 292 nM
6 | Cc1cc(C(F)(F)F)cc(O)c1-c1cnc2cn([C@H]3CCO[C@@H](C)C3)nc2n1 (single isomer, unassigned) [Example 93, 3-methyl-2-(2-((2S,4S or 2R,4R)-2-methyltetrahydro-2H-pyran-4-yl)-2H-pyrazolo[3,4-b]pyrazin-6-yl)-5-(trifluoromethyl)phenol] | 332 nM
7 | Cc1cc(C(F)(F)F)cc(O)c1-c1cnc2cn(C3CCOC(C)(C)C3)nc2n1 (single isomer, unassigned) [Example 95, (R or S)-2-(2-(2,2-dimethyltetrahydro-2H-pyran-4-yl)-2H-pyrazolo[3,4-b]pyrazin-6-yl)-3-methyl-5-(trifluoromethyl)phenol] | 388 nM
8 | Cc1cc(C(F)(F)F)cc(O)c1-c1cnc2cn(C3CCOCC3(C)C)nc2n1 (single isomer, unassigned) [Example 97, (R or S)-2-(2-(3,3-dimethyltetrahydro-2H-pyran-4-yl)-2H-pyrazolo[3,4-b]pyrazin-6-yl)-3-methyl-5-(trifluoromethyl)phenol] | 683 nM
9 | Cc1cc(C(F)(F)F)cc(O)c1-c1cnc2cn(C3CCOCC3(C)C)nc2n1 (single isomer, unassigned) [Example 98, (S or R)-2-(2-(3,3-dimethyltetrahydro-2H-pyran-4-yl)-2H-pyrazolo[3,4-b]pyrazin-6-yl)-3-methyl-5-(trifluoromethyl)phenol] | 237 nM
10 | Cc1cc(C(F)(F)F)cc(O)c1-c1cnc2cn(C3CCOCC34CC4)nc2n1 (single isomer, unassigned) [Example 99, (R or S)-2-(2-(5-oxaspiro[2.5]octan-8-yl)-2H-pyrazolo[3,4-b]pyrazin-6-yl)-3-methyl-5-(trifluoromethyl)phenol] | 580 nM
11 | Cc1cc(C(F)(F)F)cc(O)c1-c1cnc2cn([C@H]3CCOC[C@H]3F)nc2n1 (single isomer, unassigned) [Example 102, 2-(2-((3R,4R or 3S,4S)-3-fluorotetrahydro-2H-pyran-4-yl)-2H-pyrazolo[3,4-b]pyrazin-6-yl)-3-methyl-5-(trifluoromethyl)phenol] | 314 nM
12 | Cc1cc(C(F)(F)F)cc(O)c1-c1cnc2cn([C@H]3CCOC[C@@H]3F)nc2n1 (single isomer, unassigned) [Example 104, 2-(2-((3S,4R or 3R,4S)-3-fluorotetrahydro-2H-pyran-4-yl)-2H-pyrazolo[3,4-b]pyrazin-6-yl)-3-methyl-5-(trifluoromethyl)phenol] | 291 nM
13 | Cc1cc(C(F)(F)F)cc(O)c1-c1cnc2c(C)n(C3CCC(=O)NC3)nc2n1 (single isomer, unassigned) [Example 109, (S or R)-5-(6-(2-hydroxy-6-methyl-4-(trifluoromethyl)phenyl)-3-methyl-2H-pyrazolo[3,4-b]pyrazin-2-yl)piperidin-2-one] | 279 nM
14 | Cc1nc2cn(C3CCC(=O)N(C)C3)nc2nc1-c1ccc(C(F)(F)F)cc1O (single isomer, unassigned) [Example 111, (R or S)-5-(6-(2-hydroxy-4-(trifluoromethyl)phenyl)-5-methyl-2H-pyrazolo[3,4-b]pyrazin-2-yl)-1-methylpiperidin-2-one] | 175 nM
15 | Cc1nc2cn(C3CCC(=O)N(C)C3)nc2nc1-c1ccc(C(F)(F)F)cc1O (single isomer, unassigned) [Example 112, (S or R)-5-(6-(2-hydroxy-4-(trifluoromethyl)phenyl)-5-methyl-2H-pyrazolo[3,4-b]pyrazin-2-yl)-1-methylpiperidin-2-one] | 605 nM

More lines, now with the values ahead:

Row | EC50 | SMILES
16 | 101 nM | Cc1cc(C(F)(F)F)cc(O)c1-c1cnc2cn([C@H]3CCO[C@H](C)C3)nc2n1 (single isomer, unassigned) [Example 90, 3-methyl-2-(2-((2S,4R or 2R,4S)-2-methyltetrahydro-2H-pyran-4-yl)-2H-pyrazolo[3,4-b]pyrazin-6-yl)-5-(trifluoromethyl)phenol]
17 | 60 nM | Cc1cc(C(F)(F)F)cc(O)c1-c1cnc2cn(C34CCOCC3C4)nc2n1 (single isomer, unassigned) [Example 91, 2-(2-((1R,6S or 1S,6R)-3-oxabicyclo[4.1.0]heptan-6-yl)-2H-pyrazolo[3,4-b]pyrazin-6-yl)-3-methyl-5-(trifluoromethyl)phenol]
18 | 132 nM | Cc1cc(C(F)(F)F)cc(O)c1-c1cnc2cn(C34CCOCC3C4)nc2n1 (single isomer, unassigned) [Example 92, 2-(2-((1S,6R or 1R,6S)-3-oxabicyclo[4.1.0]heptan-6-yl)-2H-pyrazolo[3,4-b]pyrazin-6-yl)-3-methyl-5-(trifluoromethyl)phenol]
19 | 92 nM | Cc1cc(C(F)(F)F)cc(O)c1-c1cnc2cn([C@H]3CCO[C@@H](C)C3)nc2n1 (single isomer, unassigned) [Example 94, 3-methyl-2-(2-((2R,4R or 2S,4S)-2-methyltetrahydro-2H-pyran-4-yl)-2H-pyrazolo[3,4-b]pyrazin-6-yl)-5-(trifluoromethyl)phenol]
20 | 169 nM | Cc1cc(C(F)(F)F)cc(O)c1-c1cnc2cn(C3CCOCC34CC4)nc2n1 (single isomer, unassigned) [Example 100, (S or R)-2-(2-(5-oxaspiro[2.5]octan-8-yl)-2H-pyrazolo[3,4-b]pyrazin-6-yl)-3-methyl-5-(trifluoromethyl)phenol]
21 | 117 nM | Cc1cc(C(F)(F)F)cc(O)c1-c1cnc2cn([C@H]3CCOC[C@H]3F)nc2n1 (single isomer, unassigned) [Example 101, 2-(2-((3S,4S or 3R,4R)-3-fluorotetrahydro-2H-pyran-4-yl)-2H-pyrazolo[3,4-b]pyrazin-6-yl)-3-methyl-5-(trifluoromethyl)phenol]
22 | 66 nM | Cc1cc(C(F)(F)F)cc(O)c1-c1cnc2c(C)n(C3CCC(=O)NC3)nc2n1 (single isomer, unassigned) [Example 108, (R or S)-5-(6-(2-hydroxy-6-methyl-4-(trifluoromethyl)phenyl)-3-methyl-2H-pyrazolo[3,4-b]pyrazin-2-yl)piperidin-2-one]

— US20250195511A1, “INDAZOLE DERIVATIVES USEFUL AS INHIBITORS OF NOD-LIKE RECEPTOR PROTEIN 3” (Merck Sharp & Dohme LLC, priority 2023, published 2025)
